{
  "source": "patent US20050155093A1",
  "about": "“Rabbit nuclear cloning method and uses thereof” (Institute National de Ia Recherche Agronomique, priority 2002, published 2005)",
  "tested_on": "rabbit MII oocytes",
  "assay": "In vitro development after parthenogenic activation of rabbit oocytes (electrical activation, then incubation in M199 with drug)",
  "assay_type": "cell-based",
  "description": "Metaphase II (MII) oocytes are collected from superovulated “New Zealand” rabbits by injections of FSH hormones followed by an injection of HCG hormone, mated with a vasectomized male 16 hours after injection of human choriogonadotrophin (hCG). The oocytes are then incubated in 0.5% hyaluronidase for 15 min (Sigma) in order to remove the cumulus cells by gentle pipeting. For the nuclear transfer, the oocytes are enucleated as previously described (Adenot et al., 1997). Simultaneously, cumulus cells are collected either from rabbits of “New Zealand” breed or from F1 rabbits obtained by a cross between rabbits of “New Zealand” breed crossed with rabbits of “Fauves de Bourgogne” breed or “New Zealand” transgenic F1 female rabbits containing a DNA construct with a sequence encoding the enhanced green fluorescence protein (eGFP) placed under the control of an EF1 (“elongation factor 1”) promoter or of an HMG promoter. The eGFP fluorescence and the PCR amplification reactions are used as markers for the cumulus donor cells. The cumulus cells are then stored at 38° C. in PBS without calcium or magnesium supplemented with 1% PVP 40 000 (polyvinylpyrrolidone (PVP)) which are then used as nucleus donor cells.\nTo reconstruct the embryos by nuclear transfer (NT), individual cumulus cells are inserted by micromanipulation into the zona pellucida of the enucleated oocytes. The embryos obtained by nuclear transfer (NT embryos) and the MII oocytes are activated in the following manner: 2 phases of electrical stimulations are applied 1 hour apart with a Grass stimulator (3 pulses of continuous current of 3.2 kV×cm^−1 for 20 μs each in 0.3 M mannitol containing 0.1 mM of Ca^2+ and of Mg^2+), the first phase inducing the fusion of the oocyte and of the cumulus cell. The reconstituted embryos are maintained for one hour in a culture medium at 38° C. […] After extensive washing to remove the drugs, the cells are again placed in culture in a microdrop of 50 μl of B2 medium supplemented with 2.5% fetal calf serum (FCS) in mineral oil (Sigma M8410) at 38° C. under an atmosphere saturated with 5% CO2. This activation protocol is applied to the NT embryos about 18 to 20 hours after mating of the donors.\nThe microtubular organization and the chromatin in the NT embryos at the 1 cell stage are observed as previously described (Adenot et al., 1997), except that the fixing state lasts for 20 min at 37° C. and that the mounting medium is Vectashield (Vector Laboratories). The rates of cleavage of the NT embryos and of the parthenotes are evaluated from 21 hours to 23 hours after electrostimulation. The rates of development up to the blastocyst stage are estimated after an in vitro culture of 3 to 4 days. For the evaluation of the number of cells, the embryos are fixed as previously described, and then stained with Hoechst […] at 1 μg/ml and then mounted on slides with wells in Vectashield and analyzed by epifluorescence. The controls are blastocysts which either developed in vitro from a 1 cell embryo collected from a superovulated rabbit or which developed in vivo from nonsuperovulated females crossed with a male and then sacrificed 3 or 4 days later.",
  "key": {"[1]": {"conditions": "30 min incubation in M199 + drug after electrical activation"}, "[2]": {"conditions": "1 h incubation in M199 + drug after electrical activation"}, "[3]": {"conditions": "1 h incubation in M199 + drug after electrical activation, cleavage at 2 cell stage"}, "[4]": {"conditions": "4 h incubation in M199 + drug after electrical activation"}},
  "note": "“And” between values parts separate entries of the source, which are not always exact repeats. Equal values may be shown once.",
  "data": [
    {"smiles": "CN(C)c1ncnc2nc[nH]c12", "note": "[6-DMAP, 6-dimethylaminopurine]", "values": [
      {"measurement": "Number of blastocysts", "setting": "[1]", "result": 32},
      {"measurement": "Number of cleaved oocytes", "setting": "[1]", "result": 43},
      {"measurement": "blastocysts (%)", "setting": "[1]", "result": 66.7, "unit": "%"},
      {"measurement": "cleaved oocytes (%)", "setting": "[1]", "result": 89.6, "unit": "%"},
      {"measurement": "Number of blastocysts", "setting": "[2]", "result": "38 and 35"},
      {"measurement": "Number of cleaved oocytes", "setting": "[2]", "result": "46 and 47"},
      {"measurement": "blastocysts (%)", "setting": "[2]", "result": 72.9, "unit": "%"},
      {"measurement": "cleaved oocytes (%)", "setting": "[3]", "result": "96% and 95.8% and 97.9%"}
    ]},
    {"smiles": "C[C@@H]1C[C@@H]([C@H](O)CC2CC(=O)NC(=O)C2)C(=O)[C@@H](C)C1", "note": "[CHX, cycloheximide]", "values": [
      {"measurement": "Number of blastocysts", "setting": "[1]", "result": 19},
      {"measurement": "Number of cleaved oocytes", "setting": "[1]", "result": 41},
      {"measurement": "blastocysts (%)", "setting": "[1]", "result": 39.6, "unit": "%"},
      {"measurement": "cleaved oocytes (%)", "setting": "[1]", "result": 85.4, "unit": "%"},
      {"measurement": "Number of blastocysts", "setting": "[2]", "result": 24},
      {"measurement": "Number of cleaved oocytes", "setting": "[2]", "result": 45},
      {"measurement": "blastocysts (%)", "setting": "[2]", "result": 50, "unit": "%"},
      {"measurement": "cleaved oocytes (%)", "setting": "[3]", "result": "94% and 93.7%"},
      {"measurement": "Number of blastocysts", "setting": "[4]", "result": 25},
      {"measurement": "Number of cleaved oocytes", "setting": "[4]", "result": 47},
      {"measurement": "blastocysts (%)", "setting": "[4]", "result": 52.1, "unit": "%"},
      {"measurement": "cleaved oocytes (%)", "setting": "[4]", "result": 97.9, "unit": "%"}
    ]}
  ]
}
